Common to all, as to format: cell-based
The target in test [1] is T1, wild-type Androgen Receptor (AR-wt) (Homo sapiens, UniProt P10275).
T1 construct: expressed in transfected cells; host or cells: LNCaP (LNCaP AR (cs))
T1 sequence (P10275 1-920): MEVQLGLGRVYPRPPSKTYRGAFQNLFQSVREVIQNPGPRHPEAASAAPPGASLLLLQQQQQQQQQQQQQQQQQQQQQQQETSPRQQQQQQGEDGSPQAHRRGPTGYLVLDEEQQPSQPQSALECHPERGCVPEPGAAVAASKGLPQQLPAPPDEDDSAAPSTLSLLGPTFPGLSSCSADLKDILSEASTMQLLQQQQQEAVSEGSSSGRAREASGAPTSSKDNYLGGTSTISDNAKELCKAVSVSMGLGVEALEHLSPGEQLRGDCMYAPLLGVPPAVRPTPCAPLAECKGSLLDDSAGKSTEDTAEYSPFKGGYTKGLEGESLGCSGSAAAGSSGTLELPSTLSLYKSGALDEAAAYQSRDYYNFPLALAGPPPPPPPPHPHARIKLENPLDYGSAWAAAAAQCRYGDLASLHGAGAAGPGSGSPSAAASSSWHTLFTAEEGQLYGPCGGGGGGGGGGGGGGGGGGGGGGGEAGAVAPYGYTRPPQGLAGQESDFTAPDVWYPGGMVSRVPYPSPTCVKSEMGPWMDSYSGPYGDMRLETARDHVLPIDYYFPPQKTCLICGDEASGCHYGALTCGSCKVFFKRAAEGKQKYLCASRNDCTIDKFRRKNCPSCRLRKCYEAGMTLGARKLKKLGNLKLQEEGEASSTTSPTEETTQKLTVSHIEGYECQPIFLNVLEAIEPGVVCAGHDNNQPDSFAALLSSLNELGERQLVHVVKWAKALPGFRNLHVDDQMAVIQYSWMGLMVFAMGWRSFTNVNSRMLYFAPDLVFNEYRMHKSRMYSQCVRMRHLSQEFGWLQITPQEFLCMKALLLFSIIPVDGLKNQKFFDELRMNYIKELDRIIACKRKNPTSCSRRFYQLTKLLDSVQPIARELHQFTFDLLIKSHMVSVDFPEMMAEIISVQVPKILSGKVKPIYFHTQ
Put plainly: LNCaP-AR-wt ANT reporter assay (ARE firefly luciferase, antagonist mode). To be noted: for IC50: antagonist mode, 400 pM R-1881 challenge, −Log10(IC50 [Molar]), read-out: LNCaP-AR-wt ANT pIC50 (converted); for Emax: read-out: LNCaP-AR-wt ANT MAX % Inh. How it is done:
(§1) A stable pooled-population cell line was generated using puromycin (Life Technologies) selection at 1:10,000 v/v. The protocol below was used for both cell lines and for testing of the compounds of Formula (I) of the present invention.
(§2) LNCaP cells were grown to about 80% confluence, media removed and cells rinsed in Hank's balanced salt solution prior to separation from the plate with 0.05% Trypsin EDTA. Cells were lifted and trypsin negated in complete CSS (charcoal stripped serum) culture media. […] Agonist challenge was at 400 pM for WT assay and 600 pM for F876L assay. Plates containing cells and compounds herein were incubated for a further 20-24 hours at 37° C., 5% CO2 before addition of 40 μL/well of Steady-Glo Luciferase Assay System Reagent (Promega# E2520). After 1 h, plates were read for luminescence on a BMG Pherastar.
(§3) EC/IC50 calculations were achieved utilizing calculated RLU data and data fitting macros. Data were fit using least-squares methods to the following formula: […]
In general terms: In a reporter assay the amount or activity of a reporter protein is the signal.

Test [2] concerns the target T1, wild-type Androgen Receptor (AR-wt). Description: LNCaP-AR-wt AG reporter assay (ARE firefly luciferase, agonist mode). To be noted: for EC50: agonist mode, −Log10(EC50 [Molar]), read-out: LNCaP-AR-wt AG pEC50 (converted); for Emax: read-out: LNCaP-AR-wt AG MAX % Stim. Here is the method: as §1, §2, §3
Test [3] concerns the target T2, F876L mutant Androgen Receptor (AR-F876L) (Homo sapiens, UniProt P10275, F877L).
T2 construct: expressed in transfected cells; host or cells: LNCaP (LNCaP F876L)
T2 sequence (P10275 1-920 F877L): T1 sequence (P10275 1-920) with F877L
Description: LNCaP-AR-F876L ANT reporter assay (ARE firefly luciferase, antagonist mode). As to conditions: for Emax: read-out: LNCaP-AR-F876L ANT MAX % Inh; for IC50: read-out: LNCaP-AR-F876L ANT pIC50 (converted). Here is the method:
as §1, §2, §3

The target of test [4] is T2, F876L mutant Androgen Receptor (AR-F876L). Put plainly: LNCaP-AR-F876L AG reporter assay (ARE firefly luciferase, agonist mode). To be noted: for EC50: agonist mode, −Log10(EC50 [Molar]), read-out: LNCaP-AR-F876L AG pEC50 (converted); for Emax: read-out: LNCaP-AR-F876L AG MAX % Stim. How it is done: as §1, §2, §3
Where [5] appears, read: maximum % inhibition of R1881 control response over tested concentration range.
The mark [6] stands for this setting: maximum % stimulation (agonist response) over tested concentration range.

Numbering of substitutions follows the chain as printed. pEC50: −log10 of the molar value. Read-outs that look alike come from different tables or passages of the source.

Consider `COc1cc(F)ccc1N1C(=S)N(c2cnc(C#N)c(C(F)(F)F)c2)C(=O)C12CCC2` [Cpd 94, 5-[8-(4-fluoro-2-methoxy-phenyl)-5-oxo-7-thioxo-6,8-diazaspiro[3.4]octan-6-yl]-3-(trifluoromethyl)pyridine-2-carbonitrile], for which the IC50 in test [1] was 724 nM; in test [3], 631 nM. Further, the Emax in test [1] (setting [5]) was determined as 95%; in test [2] (setting [6]) it was 6%; in test [3] (setting [5]), 99.2%; in test [4] (setting [6]), 1.5%. Moreover, the EC50 in test [2] and in test [4] was greater than 15100 nM in each case.

On to `CC(C)NC(=O)c1ccc(N2C(=S)N(c3cnc(C#N)c(C(F)(F)F)c3)C(=O)C23CCC3)cc1F` [Cpd 23, 4-[6-[6-cyano-5-(trifluoromethyl)-3-pyridyl]-5-oxo-7-thioxo-6,8-diazaspiro[3.4]octan-8-yl]-2-fluoro-N-isopropyl-benzamide], for which the results for the IC50 in test [1] and in test [3] were 1260 nM and 347 nM, respectively. For the same compound, the Emax is 99.4% in test [1] (setting [5]), 0.9% in test [2] (setting [6]), 99.6% in test [3] (setting [5]) and 0% in test [4] (setting [6]). The EC50 in test [2] and in test [4] was greater than 15100 nM each time.

For `Cc1cc(N2C(=O)C3(CCC3)N(c3ccc(OCCN4CCN(C)CC4)cc3)C2=S)cnc1C#N` [Cpd 10, 3-methyl-5-[8-[4-[2-(4-methylpiperazin-1-yl)ethoxy]phenyl]-5-oxo-7-thioxo-6,8-diazaspiro[3.4]octan-6-yl]pyridine-2-carbonitrile], the IC50 is 724 nM in test [1] and 490 nM in test [3]. Further, the Emax turned out to be 99% in test [1] (setting [5]), 0.6% in test [2] (setting [6]), 98.4% in test [3] (setting [5]) and 0.1% in test [4] (setting [6]). Besides, the EC50 in test [2] and in test [4] was greater than 15100 nM in each case.

Regarding `Cc1ccc(N2C(=S)N(c3cnc(C#N)c(C(F)(F)F)c3)C(=O)C2(C)C)cc1` [Cpd 110, 5-[4,4-dimethyl-5-oxo-3-(p-tolyl)-2-thioxo-imidazolidin-1-yl]-3-(trifluoromethyl)pyridine-2-carbonitrile], the IC50 was 195 nM in test [1] and 145 nM in test [3]. In addition, the Emax amounted to 100% in test [1] (setting [5]), 1.3% in test [2] (setting [6]), 100% in test [3] (setting [5]) and 2.6% in test [4] (setting [6]). In addition, the EC50 in test [2] and in test [4] was greater than 15100 nM in each case.

In the case of `N#Cc1ncc(N2C(=O)C3(CCC3)N(c3ccc(OCCc4ncccn4)c(F)c3)C2=S)cc1C(F)(F)F` [Cpd 56, 5-[8-[3-fluoro-4-(2-pyrimidin-2-ylethoxy)phenyl]-5-oxo-7-thioxo-6,8-diazaspiro[3.4]octan-6-yl]-3-(trifluoromethyl)pyridine-2-carbonitrile], the values for the IC50 in test [1] and in test [3] were 851 nM and 832 nM, respectively. Moreover, the Emax in test [1] (setting [5]) stood at 99.7%; in test [2] (setting [6]), 0.5%; in test [3] (setting [5]), 97.8%; in test [4] (setting [6]), 0.4%. The EC50 in test [2] and in test [4] was greater than 15100 nM throughout.

Turning to `CNC(=O)c1ccc(N2C(=S)N(c3cnc(C#N)c(C)c3)C(=O)C23CCC3)cc1F` [Cpd 16, 4-[6-(6-cyano-5-methyl-3-pyridyl)-5-oxo-7-thioxo-6,8-diazaspiro[3.4]octan-8-yl]-2-fluoro-N-methyl-benzamide], the IC50 in test [1] is 631 nM; in test [3], 269 nM. Further, the Emax in test [1] (setting [5]) was 99.2%; in test [2] (setting [6]) it was 0.3%; in test [3] (setting [5]) it was 98.7%; in test [4] (setting [6]), 0%. In addition, the EC50 in test [2] and in test [4] was greater than 15100 nM in each case.

Turning to `N#Cc1ncc(N2C(=O)C3(CCC3)N(c3ccc4ccccc4c3)C2=S)cc1C(F)(F)F` [Cpd 18, 5-[8-(2-naphthyl)-5-oxo-7-thioxo-6,8-diazaspiro[3.4]octan-6-yl]-3-(trifluoromethyl)pyridine-2-carbonitrile], the IC50 in test [1] was 204 nM; in test [3] it was 191 nM. Further, the Emax was 101% in test [1], -0.2% in test [2], 101% in test [3] and 0% in test [4]. Also, the negative logarithm of the EC50 (pEC50) in test [2] and in test [4] was less than 4.82 throughout.

For `N#Cc1ncc(N2C(=O)C3(CCC3)N(c3ccc(C(=O)NCCCN4CCCC4=O)c(F)c3)C2=S)cc1C(F)(F)F` [Cpd 37, 4-[6-[6-cyano-5-(trifluoromethyl)-3-pyridyl]-5-oxo-7-thioxo-6,8-diazaspiro[3.4]octan-8-yl]-2-fluoro-N-[3-(2-oxopyrrolidin-1-yl)propyl]benzamide], the figures for the IC50 in test [1] and in test [3] were 1200 nM and 398 nM, respectively. Further, the Emax in test [1] (setting [5]) is 99.3%; in test [2] (setting [6]) it was 0.3%; in test [3] (setting [5]), 96.5%; in test [4] (setting [6]) it was 0.3%. For the same compound, the EC50 in test [2] and in test [4] was greater than 15100 nM throughout.

For the compound `N#Cc1ncc(N2C(=O)C3(CCC3)N(c3ccc(C(=O)NCCc4ccccn4)c(F)c3)C2=S)cc1C(F)(F)F` [Cpd 15, 4-[6-[6-cyano-5-(trifluoromethyl)-3-pyridyl]-5-oxo-7-thioxo-6,8-diazaspiro[3.4]octan-8-yl]-2-fluoro-N-[2-(2-pyridyl)ethyl]benzamide], the IC50 was 209 nM in test [1] and 46.8 nM in test [3]. In addition, the Emax in test [1] (setting [5]) was 103%; in test [2] (setting [6]) it was -0.1%; in test [3] (setting [5]) it was 102%; in test [4] (setting [6]) it was 0%. Further, the EC50 in test [2] and in test [4] was greater than 15100 nM in each case.

The pEC50 is the negative decadic logarithm of the EC50, by convention in mol/L. Low readings indicate a high EC50, high ones a low EC50.

For the origin of these results see patent US20180008587A1, “THIOHYDANTOIN ANDROGEN RECEPTOR ANTAGONISTS FOR THE TREATMENT OF CANCER” (Jaressen Pharmaceutica NV, priority 2016, published 2018).
